The text below walks through data of ChEMBL document CHEMBL1145433, “Nuttingins A-F and malonganenones D-H, tetraprenylated alkaloids from the Tanzanian gorgonian Euplexaura nuttingi” (2007).

One may read the inhibition as the drop in the measured response relative to a control, in per cent. A high value points to strong suppression.

Activity calls are given as the source filed them. The rule behind the calls is not given here.

One test concerns HEK293. As to the kind of experiment: Induction of apoptosis in 293 cells at 1.25 ug/mL. The class given is functional, cell-based. As to conditions: Homo sapiens.
Test [1] concerns K562. Description: Growth inhibition of human K562 cells at 0.4 ug/mL after 48 hrs by MTT assay. Format: functional. The note with it: K562, 48 h. (In general: Tetrazolium dyes change colour on reduction, which living cells bring about.)
In test [2] the test system is K562. As to the kind of experiment: Growth inhibition of human K562 cells by MTT assay. Format: functional, cell-based.
Test [3] relates to UT7. Description: Growth inhibition of human UT7 cells at 0.4 ug/mL after 48 hrs by MTT assay. The note with it: UT7, 48 h. Format: functional.
Test [4] relates to UT7. Description: Growth inhibition of human UT7 cells by MTT assay. Format: functional, cell-based.

As for `C/C(=C\CC/C(C)=C/Cn1cnc2c1c(=O)ncn2C)CC/C=C(\C)CC(=O)CC(C)C`, in the test with HEK293, the result was Active.
For `C/C(=C\CC/C(C)=C/Cn1cnc2c1C(=O)N(C)CN2C)CC/C=C(\C)CC(=O)CC(C)C` [NUTTINGIN C], the inhibition at 0.4 µg/mL in the test with K562 [1] was determined as 30%; in the test on UT7 [3], 50%. Further, the outcome with HEK293 was Active. Also, the Activity entry with K562 [2] and with UT7 [4] was “Dose-dependent effect” each time.
Turning to `C/C(=C\CC/C(C)=C/Cn1cnc2c1c(=O)n(C)c(=O)n2C)CC/C=C(\C)CC(=O)CC(C)C`, the result in the test with HEK293 was Active.
Consider `CNC(=O)c1c(N(C)C=O)ncn1C/C=C(\C)CC/C=C(\C)CC/C=C(\C)CC(=O)CC(C)C`, for which the outcome with HEK293 was Active.
`C/C(=C/C(=O)CC(C)C)CCC/C(C)=C/CC/C(C)=C/Cn1cnc2c1c(=O)n(C)c(=O)n2C`: the outcome in the test on HEK293 was Active.
For the compound `C/C(=C\Cn1cnc2c1C(=O)N(C)CN2C)CC/C=C(\C)CCC/C(C)=C/C(=O)CC(C)C` [NUTTINGIN D], the inhibition at 0.4 µg/mL in the test on K562 [1] was 30%; with UT7 [3] it was 50%. Also, the result in the test on HEK293 was Active. For the same compound, the Activity entry in the test on K562 [2] and in the test on UT7 [4] was “Dose-dependent effect” each time.
Turning to `C/C(=C\Cn1cnc2c1c(=O)ncn2C)CC/C=C(\C)CCC/C(C)=C/C(=O)CC(C)C`, the result in the test with HEK293 was Active.
In the case of `C/C(=C\CNC=O)CC/C=C(\C)CCC/C(C)=C/C(=O)CC(C)C`, the result in the test with HEK293 was Active.
As to `CNC(=O)c1c(N(C)C=O)ncn1C/C=C(\C)CC/C=C(\C)CCC/C(C)=C/C(=O)CC(C)C`, the result in the test with HEK293 was Active.
On to `C/C(=C/C(=O)CC(C)C)CCC/C(C)=C/CC/C(C)=C/Cn1cnc2c1C(=O)N(C)CN2C` [NUTTIGIN E], for which the inhibition at 0.4 µg/mL in the test on K562 [1] came to 30%; in the test with UT7 [3], 50%. For the same compound, the result with HEK293 was Active.
